# Test results from patent US7015215B2, “Pyrrolo[2,1-c][1,4] benzodiazepines compounds and process thereof” (Council of Scientific and Industrial Research, priority 2003, dated 2006).
# Assays:
# HT-29 = experiment: NCI SRB cytotoxicity, Colon HT-29; format: cell-based, human; conditions: HT-29, Colon, 48 h
# Method: (§1) Biological Activity: In vitro biological activity studies were carried out at National Cancer Institute (U.S.A.).
# (§2) For each compound, dose response curves for each cell line were measured at a minimum of five concentrations at 10 fold dilutions. A protocol of 48 h continuous drug exposure was used, and a sulforhodamine B (SRB) protein assay was used to estimate cell viability or growth. The concentration causing 50% cell growth inhibition (GI50), total cell growth inhibition (TGI, 0% growth) and 50% cell death (LC50, −50% growth) compared with the control was calculated.
# HL-60(TB) = conditions: Leukemia, 48 h, SRB
# Method: as §1, §2
# MALME-3M = experiment: NCI SRB cytotoxicity, Melanoma MALME-3M; format: cell-based, human; conditions: 48 h
# Method: as §1, §2
# SNB-75 = experiment: NCI SRB cytotoxicity, CNS SNB-75; format: cell-based, human; conditions: SNB-75, CNS, 48 h
# Method: as §1, §2
# PC-3 = experiment: NCI SRB cytotoxicity, Prostate PC-3; format: cell-based, human; conditions: PC-3, Prostate, 48 h
# Method: as §2
# ACHN = experiment: NCI SRB cytotoxicity, Renal ACHN; format: cell-based, human; conditions: 48 h
# Method: as §1, §2
# NCI-H226 = experiment: NCI SRB cytotoxicity, Non-small-cell lung NCI-H226; format: cell-based, human; conditions: 48 h
# Method: as §1, §2
# NCI-H460 = experiment: NCI SRB cytotoxicity, Non-small-cell lung NCI-H460; format: cell-based, human; conditions: 48 h
# Method: as §1, §2
# HCT-116 = experiment: NCI SRB cytotoxicity, Colon HCT-116; format: cell-based, human; conditions: HCT-116, Colon, 48 h
# Method: as §1, §2
# SF-295 = experiment: NCI SRB cytotoxicity, CNS SF-295; format: cell-based, human; conditions: SF-295, CNS, 48 h
# Method: as §1, §2
# SK-MEL-5 = experiment: NCI SRB cytotoxicity, Melanoma SK-MEL-5; format: cell-based, human; conditions: SK-MEL-5, Melanoma, 48 h
# Method: as §1, §2
# SNB-19 = experiment: NCI SRB cytotoxicity, CNS SNB-19; format: cell-based, human; conditions: SNB-19, CNS, 48 h
# Method: as §1, §2
# NCI-H522 = experiment: NCI SRB cytotoxicity, Non-small-cell lung NCI-H522; format: cell-based, human; conditions: 48 h
# Method: as §1, §2
# SF-539 = experiment: NCI SRB cytotoxicity, CNS SF-539; format: cell-based, human; conditions: SF-539, CNS, 48 h
# Method: as §1, §2
# BT-549 = experiment: NCI SRB cytotoxicity, Breast BT-549; format: cell-based, human; conditions: BT-549, Breast, 48 h
# Method: as §1, §2
# SF-268 = experiment: NCI SRB cytotoxicity, CNS SF-268; format: cell-based, human; conditions: SF-268, CNS, 48 h
# Method: as §1, §2
# RXF 393 = experiment: NCI SRB cytotoxicity, Renal RXF 393; format: cell-based, human; conditions: RXF 393, Renal, 48 h
# Method: as §2
# K-62 = experiment: NCI SRB cytotoxicity, Leukemia K-62; format: cell-based, human; conditions: K-62, Leukemia, 48 h
# Method: as §1, §2
# SK-MEL-28 = experiment: NCI SRB cytotoxicity, Melanoma SK-MEL-28; format: cell-based, human; conditions: SK-MEL-28, Melanoma, 48 h
# Method: as §1, §2
# SK-MEL-2 = experiment: NCI SRB cytotoxicity, Melanoma SK-MEL-2; format: cell-based, human; conditions: SK-MEL-2, Melanoma, 48 h
# Method: as §1, §2
# 786-0 = experiment: NCI SRB cytotoxicity, Renal 786-0; format: cell-based, human; conditions: 786-0, Renal, 48 h
# Method: as §1, §2
# NCI-H23 = experiment: NCI SRB cytotoxicity, Non-small-cell lung NCI-H23; format: cell-based, human; conditions: 48 h
# Method: as §1, §2
# EKVX = experiment: NCI SRB cytotoxicity, Non-small-cell lung EKVX; format: cell-based, human; conditions: 48 h
# Method: as §1, §2
# OVCAR-3 = experiment: NCI SRB cytotoxicity, Ovarian OVCAR-3; format: cell-based, human; conditions: OVCAR-3, Ovarian, 48 h
# Method: as §1, §2
# T-47D = experiment: NCI SRB cytotoxicity, Breast T-47D; format: cell-based, human; conditions: 48 h
# Method: as §1, §2
# DU-145 = experiment: NCI SRB cytotoxicity, Prostate DU-145; format: cell-based, human; conditions: DU-145, Prostate, 48 h
# Method: as §2
# HS578T = experiment: NCI SRB cytotoxicity, Breast HS578T; format: cell-based, human; conditions: 48 h
# Method: as §1, §2
# MDA-MB-231/ATCC = experiment: NCI SRB cytotoxicity, Breast MDA-MB-231/ATCC; format: cell-based, human; conditions: 48 h
# Method: as §1, §2
# MDA-MB-435 = experiment: NCI SRB cytotoxicity, Breast MDA-MB-435; format: cell-based, human; conditions: MDA-MB-435, Breast, 48 h
# Method: as §1, §2
# MCF7 = experiment: NCI SRB cytotoxicity, Breast MCF7; format: cell-based, human; conditions: 48 h
# Method: as §1, §2
# U251 = experiment: NCI SRB cytotoxicity, CNS U251; format: cell-based, human; conditions: 48 h
# Method: as §1, §2
# IGROVI = experiment: NCI SRB cytotoxicity, Ovarian IGROVI; format: cell-based, human; conditions: 48 h
# COLO 205 = experiment: NCI SRB cytotoxicity, Colon COLO 205; format: cell-based, human; conditions: COLO 205, Colon, 48 h
# Method: as §1, §2
# NCI-H322 = experiment: NCI SRB cytotoxicity, Non-small-cell lung NCI-H322; format: cell-based, human; conditions: 48 h
# Method: as §1, §2
# human tumor cell lines = experiment: NCI in vitro cytotoxicity SRB assay, mean graph midpoints over the panel; format: cell-based; conditions: 48 h continuous exposure
# Method: as §1, §2
# HOP-92 = experiment: NCI SRB cytotoxicity, Non-small-cell lung HOP-92; format: cell-based, human; conditions: HOP-92, Non-small-cell lung, 48 h
# Method: as §1, §2
# RPMI-8226 = experiment: NCI SRB cytotoxicity, Leukemia RPMI-8226; format: cell-based, human; conditions: RPMI-8226, Leukemia, 48 h
# Method: as §2
# HCC-2998 = experiment: NCI SRB cytotoxicity, Colon HCC-2998; format: cell-based, human; conditions: HCC-2998, Colon, 48 h
# Method: as §1, §2
compound,measurement,setting,value
"COc1cc2c(cc1OCCN1CCN(CCOc3cc4c(cc3OC)C(=O)N3CCC[C@H]3C=N4)CC1)N=C[C@@H]1CCCN1C2=O [Compound VIa, 1,1′-{[(bisethane-1,N-diyl)piperazine]dioxy}bis[(11aS)-7-methoxy-1,2,3,11a-tetrahydro-5H-pyrrolo[2,1-c][1,4]benzodiazepin-5-one]]",Log GI 50,HT-29,−4.58 mol/L
same,Log LC 50,HT-29,−4.00 mol/L
same,Log GI 50,HL-60(TB),−5.49 mol/L
same,Log LC 50,HL-60(TB),−4.00 mol/L
same,Log GI 50,MALME-3M,−5.46 mol/L
same,Log LC 50,MALME-3M,−4.17 mol/L
same,Log GI 50,SNB-75,−4.23 mol/L
same,Log LC 50,SNB-75,−4.00 mol/L
same,Log GI 50,PC-3,−4.44 mol/L
same,Log LC 50,PC-3,−4.00 mol/L
same,Log GI 50,ACHN,−4.82 mol/L
same,Log LC 50,ACHN,−4.00 mol/L
same,Log GI 50,NCI-H226,−4.80 mol/L
same,Log LC 50,NCI-H226,−4.00 mol/L
same,Log GI 50,NCI-H460,−4.95 mol/L
same,Log LC 50,NCI-H460,−4.00 mol/L
same,Log GI 50,HCT-116,−4.47 mol/L
same,Log LC 50,HCT-116,−4.00 mol/L
same,Log GI 50,SF-295,−5.06 mol/L
same,Log LC 50,SF-295,−4.00 mol/L
same,Log GI 50,SK-MEL-5,−4.75 mol/L
same,Log LC 50,SK-MEL-5,−4.00 mol/L
same,Log GI 50,SNB-19,−4.75 mol/L
same,Log LC 50,SNB-19,−4.00 mol/L
same,Log GI 50,NCI-H522,−4.94 mol/L
same,Log LC 50,NCI-H522,−4.00 mol/L
same,Log GI 50,SF-539,−4.97 mol/L
same,Log LC 50,SF-539,−4.00 mol/L
same,Log GI 50,BT-549,−4.56 mol/L
same,Log LC 50,BT-549,−4.00 mol/L
same,Log GI 50,SF-268,−4.95 mol/L
same,Log LC 50,SF-268,−4.00 mol/L
same,Log GI 50,RXF 393,−4.23 mol/L
same,Log LC 50,RXF 393,−4.00 mol/L
same,Log GI 50,K-62,−4.58 mol/L
same,Log LC 50,K-62,−4.00 mol/L
same,Log GI 50,SK-MEL-28,−4.22 mol/L
same,Log LC 50,SK-MEL-28,−4.00 mol/L
same,Log GI 50,SK-MEL-2,−4.57 mol/L
same,Log LC 50,SK-MEL-2,−4.00 mol/L
same,Log GI 50,786-0,−4.84 mol/L
same,Log LC 50,786-0,−4.00 mol/L
same,Log GI 50,NCI-H23,−4.76 mol/L
same,Log LC 50,NCI-H23,−4.00 mol/L
same,Log GI 50,EKVX,−4.00 mol/L
same,Log LC 50,EKVX,−4.00 mol/L
same,Log GI 50,OVCAR-3,−4.68 mol/L
same,Log LC 50,OVCAR-3,−4.00 mol/L
same,Log GI 50,T-47D,−4.57 mol/L
same,Log LC 50,T-47D,−4.00 mol/L
same,Log GI 50,DU-145,−4.36 mol/L
same,Log LC 50,DU-145,−4.00 mol/L
same,Log GI 50,HS578T,−4.34 mol/L
same,Log LC 50,HS578T,−4.00 mol/L
same,Log GI 50,MDA-MB-231/ATCC,−4.67 mol/L
same,Log LC 50,MDA-MB-231/ATCC,−4.00 mol/L
same,Log GI 50,MDA-MB-435,−4.71 mol/L
same,Log LC 50,MDA-MB-435,−4.08 mol/L
same,Log GI 50,MCF7,−4.88 mol/L
same,Log LC 50,MCF7,−4.00 mol/L
same,Log GI 50,U251,−4.87 mol/L
same,Log LC 50,U251,−4.00 mol/L
same,Log GI 50,IGROVI,−4.21 mol/L
same,Log LC 50,IGROVI,−4.00 mol/L
same,Log GI 50,COLO 205,−4.66 mol/L
same,Log LC 50,COLO 205,−4.00 mol/L
same,Log GI 50,NCI-H322,−4.51 mol/L
same,Log LC 50,NCI-H322,−4.00 mol/L
same,Log10 GI50 mean graph midpoint (MG_MID),human tumor cell lines,−4.69
same,Log10 LC50 mean graph midpoint (MG_MID),human tumor cell lines,−4.03
same,Log10 TGI mean graph midpoint (MG_MID),human tumor cell lines,−4.16
same,Log GI 50,HOP-92,−4.68 mol/L
same,Log LC 50,HOP-92,−4.00 mol/L
same,Log GI 50,RPMI-8226,−6.08 mol/L
same,Log LC 50,RPMI-8226,−4.33 mol/L
COc1cc2c(cc1OCCCCCN1CCN(CCCCCOc3cc4c(cc3OC)C(=O)N3CCC[C@H]3C=N4)CC1)N=C[C@@H]1CCCN1C2=O [Compound VId],Log GI 50,HT-29,−5.02 mol/L
same,Log LC 50,HT-29,−4.00 mol/L
same,Log GI 50,HL-60(TB),−5.38 mol/L
same,Log LC 50,HL-60(TB),−4.00 mol/L
same,Log GI 50,SNB-75,−4.51 mol/L
same,Log LC 50,SNB-75,−4.00 mol/L
same,Log GI 50,PC-3,−5.41 mol/L
same,Log LC 50,PC-3,−4.00 mol/L
same,Log GI 50,ACHN,−4.63 mol/L
same,Log LC 50,ACHN,−4.00 mol/L
same,Log GI 50,NCI-H226,−5.30 mol/L
same,Log LC 50,NCI-H226,−4.00 mol/L
same,Log GI 50,NCI-H460,−5.49 mol/L
same,Log LC 50,NCI-H460,−4.00 mol/L
same,Log GI 50,HCT-116,−4.00 mol/L
same,Log LC 50,HCT-116,−4.00 mol/L
same,Log GI 50,SF-295,−5.30 mol/L
same,Log LC 50,SF-295,−4.00 mol/L
same,Log GI 50,SK-MEL-5,−5.48 mol/L
same,Log LC 50,SK-MEL-5,−4.00 mol/L
same,Log GI 50,SNB-19,−4.00 mol/L
same,Log LC 50,SNB-19,−4.00 mol/L
same,Log GI 50,NCI-H522,−5.47 mol/L
same,Log LC 50,NCI-H522,−4.00 mol/L
same,Log GI 50,SF-539,−5.44 mol/L
same,Log LC 50,SF-539,−4.00 mol/L
same,Log GI 50,BT-549,−5.31 mol/L
same,Log LC 50,BT-549,−4.00 mol/L
same,Log GI 50,SF-268,−5.44 mol/L
same,Log GI 50,RXF 393,−8.00 mol/L
same,Log LC 50,RXF 393,−5.09 mol/L
same,Log GI 50,K-62,−5.46 mol/L
same,Log LC 50,K-62,−4.20 mol/L
same,Log GI 50,SK-MEL-28,−4.71 mol/L
same,Log LC 50,SK-MEL-28,−4.00 mol/L
same,Log GI 50,786-0,−5.61 mol/L
same,Log LC 50,786-0,−4.00 mol/L
same,Log GI 50,NCI-H23,−5.18 mol/L
same,Log LC 50,NCI-H23,−4.00 mol/L
same,Log GI 50,EKVX,−4.33 mol/L
same,Log LC 50,EKVX,−4.00 mol/L
same,Log GI 50,OVCAR-3,−5.32 mol/L
same,Log LC 50,OVCAR-3,−4.00 mol/L
same,Log GI 50,T-47D,−5.00 mol/L
same,Log LC 50,T-47D,−4.00 mol/L
same,Log GI 50,DU-145,−5.37 mol/L
same,Log LC 50,DU-145,−4.00 mol/L
same,Log GI 50,HS578T,−5.12 mol/L
same,Log LC 50,HS578T,−4.00 mol/L
same,Log GI 50,MDA-MB-231/ATCC,−5.42 mol/L
same,Log LC 50,MDA-MB-231/ATCC,−4.00 mol/L
same,Log GI 50,MDA-MB-435,−5.37 mol/L
same,Log LC 50,MDA-MB-435,−4.00 mol/L
same,Log GI 50,MCF7,−5.69 mol/L
same,Log LC 50,MCF7,−4.00 mol/L
same,Log GI 50,HCC-2998,−5.69 mol/L
same,Log LC 50,HCC-2998,−4.29 mol/L
same,Log GI 50,U251,−5.47 mol/L
same,Log LC 50,U251,−4.00 mol/L
same,Log GI 50,IGROVI,−5.13 mol/L
same,Log LC 50,IGROVI,−4.00 mol/L
same,Log GI 50,COLO 205,−5.49 mol/L
same,Log LC 50,COLO 205,−4.00 mol/L
same,Log GI 50,NCI-H322,−4.65 mol/L
same,Log LC 50,NCI-H322,−4.00 mol/L
same,Log10 GI50 mean graph midpoint (MG_MID),human tumor cell lines,−5.14
same,Log10 LC50 mean graph midpoint (MG_MID),human tumor cell lines,−4.04
same,Log10 TGI mean graph midpoint (MG_MID),human tumor cell lines,−4.26
same,Log GI 50,HOP-92,−5.46 mol/L
same,Log LC 50,HOP-92,−4.00 mol/L
same,Log GI 50,RPMI-8226,−5.59 mol/L
same,Log LC 50,RPMI-8226,−4.54 mol/L
